# Measurements from the supplement of paper PMC10307832.
# Key:
# Experiment in all cases: relative viability (nuclei count vs DMSO), 5 days (fraction); higher = more cells survive
# [1] = compound: COc1cc2ncn(-c3cc(OCc4ccccc4C(F)(F)F)c(C(N)=O)s3)c2cc1OC + CCNC(=O)c1noc(-c2cc(C(C)C)c(O)cc2O)c1-c1ccc(CN2CCOCC2)cc1 [Luminespib] (partner 0.01 µM)
# Outline: (§1)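 Cells from lung cancer lines were seeded into 1536-well plates and, one day later, dosed by pin tool. Treatments were either a single drug or a fixed dose of an anchor drug with five library-drug doses (not always all listed) in √10 steps. After 5 days, nuclei were stained in a one-step fixation (final 0.05% Triton X-100, 1% formaldehyde, 1 ug/ml Hoechst) and counted on 4× images, and relative viability is the treated-to-vehicle nuclei ratio, as the median of duplicate plates.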
# [2] = compound: COc1cc2ncn(-c3cc(OCc4ccccc4C(F)(F)F)c(C(N)=O)s3)c2cc1OC + CC(=O)c1c(C)c2cnc(Nc3ccc(N4CCNCC4)cn3)nc2n(C2CCCC2)c1=O [Palbociclib] (partner 0.5 µM)
# Outline: as §1
# [3] = compound: COc1cc2ncn(-c3cc(OCc4ccccc4C(F)(F)F)c(C(N)=O)s3)c2cc1OC + CS(=O)(=O)N1CCN(Cc2cc3nc(-c4cccc5[nH]ncc45)nc(N4CCOCC4)c3s2)CC1 [Pictilisib] (partner 1 µM)
# Outline: as §1
# [4] = compound: COc1cc2ncn(-c3cc(OCc4ccccc4C(F)(F)F)c(C(N)=O)s3)c2cc1OC + COc1cccc2cc(-c3nc([C@H]4CC[C@H](C(=O)O)CC4)n4ncnc(N)c34)[nH]c12 [OSI-027] (partner 0.5 µM)
# Outline: as §1
Cell Line,relative viability ([1]; first compound 0.05 µM),relative viability ([1]; first compound 0.1581 µM),relative viability ([1]; first compound 0.5 µM),relative viability ([1]; first compound 1.581 µM),relative viability ([1]; first compound 5 µM),relative viability ([2]; first compound 0.05 µM),relative viability ([2]; first compound 0.1581 µM),relative viability ([2]; first compound 0.5 µM),relative viability ([2]; first compound 1.581 µM),relative viability ([2]; first compound 5 µM),relative viability ([3]; first compound 0.05 µM),relative viability ([3]; first compound 0.1581 µM),relative viability ([3]; first compound 0.5 µM),relative viability ([3]; first compound 1.581 µM),relative viability ([3]; first compound 5 µM),relative viability ([4]; first compound 0.05 µM),relative viability ([4]; first compound 0.1581 µM),relative viability ([4]; first compound 0.5 µM),relative viability ([4]; first compound 1.581 µM),relative viability ([4]; first compound 5 µM)
LCLC-97TM1,0.757,0.719,0.415,0.167,0.197,0.216,0.191,0.17,0.0856,0.111,0.203,0.2,0.123,0.134,0.125,0.529,0.538,0.301,0.195,0.175
HARA,0.951,0.654,0.238,0.0482,0.0507,0.224,0.251,0.234,0.173,0.127,0.443,0.38,0.274,0.0824,0.0556,0.445,0.504,0.244,0.0613,0.0396
HCC-78,,,,,,0.497,0.478,0.435,0.406,0.357,0.221,0.188,0.186,0.206,0.186,0.444,0.414,0.343,0.288,0.244
NCI-H1666,1.06,0.937,0.508,0.36,0.363,0.631,0.637,0.597,0.414,0.445,0.404,0.38,0.332,0.188,0.193,0.895,0.778,0.543,0.362,0.366
NCI-H2347,0.522,0.303,0.419,0.346,0.465,0.373,0.413,0.397,0.377,0.375,0.689,0.435,0.503,0.394,0.375,0.488,0.492,0.326,0.308,0.375
PC-14,0.15,0.303,0.189,0.159,0.133,0.503,0.403,0.154,0.0334,0.0605,0.717,0.694,0.343,0.0295,0.0382,0.861,0.904,0.254,0.0302,0.027
NCI-H2023,0.735,0.679,0.299,0.0886,0.0831,0.397,0.41,0.265,0.0834,0.0792,0.228,0.287,0.196,0.12,0.0888,0.323,0.391,0.185,0.0955,0.0617
201T,1.07,1.08,1,0.689,0.28,0.363,0.38,0.335,0.349,0.28,0.717,0.743,0.682,0.319,0.247,0.755,0.699,0.672,,0.369
NCI-H1915,0.796,0.713,0.389,0.0805,0.0432,0.456,0.493,0.347,0.114,0.0905,0.988,0.857,0.799,0.111,0.0806,0.657,0.543,0.321,0.136,0.114
NCI-H2009,1.03,0.941,0.819,0.127,0.101,0.191,0.203,0.188,0.178,0.127,0.783,0.417,0.325,0.166,0.152,0.487,0.56,0.209,0.176,0.135
BEN,0.398,0.522,0.227,0.21,0.214,0.5,0.455,0.471,0.45,0.437,0.653,0.557,0.471,0.223,0.233,0.272,0.307,0.278,0.205,0.233
PC-3 [JPC-3],0.66,0.712,0.486,0.221,0.19,0.568,0.541,0.534,0.435,0.429,0.728,0.78,0.611,0.327,0.26,0.79,0.767,0.423,0.169,0.198
SK-MES-1,0.725,0.83,0.266,0.167,0.182,0.298,0.281,0.264,0.192,0.199,0.343,0.414,0.292,0.132,0.213,0.554,0.602,0.219,0.129,0.143
NCI-H838,0.301,0.283,0.128,0.136,0.114,0.255,0.231,0.161,0.111,0.0913,0.514,0.519,0.478,0.14,0.0851,0.385,0.424,0.292,0.231,0.123
NCI-H1355,0.635,0.623,0.424,0.221,0.163,0.271,0.423,0.345,0.186,0.152,0.499,0.399,0.385,0.182,0.151,0.433,0.367,0.223,0.177,0.126
NCI-H1975,0.229,0.26,0.184,0.163,0.233,0.613,0.33,0.193,0.198,0.148,0.285,0.324,0.257,0.133,0.157,0.66,0.547,0.328,0.109,0.1
